{"source": "patent US20070196413A1", "about": "“Surfactant enhanced quick release pesticide granules” (priority 2003, published 2007)", "origin": "cited, not measured here", "note": "Read-outs that look alike come from different tables or passages of the source.", "data": [{"smiles": "CNC(=O)CSP(=S)(OC)OC", "note": "[Cygon, dimethoate]", "values": [{"measurement": "Time to lose 50 percent of pest control power", "setting": "mixed in water of pH 9", "value": 48, "unit": "min"}, {"measurement": "Time to lose 50 percent of pest control power", "setting": "pH of 6", "value": 720, "unit": "min"}]}]}
